Results on 15 molecules are retold here after PubChem BioAssay (NCI).

Test systems include MDA-N; NCI-H522 lung; NCI-H23 lung; HCC-2998 colon; SNB-75 CNS; RXF 393 renal; SK-MEL-28 melanoma; T-47D breast; OVCAR-8 ovarian; UO-31 renal.
Common to all, as to experiment: NCI tumour cell line growth inhibition, 48 h

SMILES strings stand for the structures.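 In this assay, cells in 96-well plates receive the compound at five concentrations for 48 hours. Endpoints are linearly interpolated between the surrounding concentrations. At the TGI there is no net growth.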

Turning to `Cc1nc(SCC(N)=O)c2sc(=S)n(-c3ccccc3)c2n1`, the TGI in the test on MDA-N, with NCI-H522 lung, in the test with NCI-H23 lung, with HCC-2998 colon, with SNB-75 CNS and in the test on RXF 393 renal was over 10 µM throughout. In addition, the TGI in the test on SK-MEL-28 melanoma, in the test with T-47D breast and with OVCAR-8 ovarian was over 10 µM each time.
As to `CNC(=S)NNc1ncnc2c1c(-c1ccc(Cl)cc1)cn2-c1ccc(C)cc1`, the TGI was 28 µM with MDA-N; 20.7 µM with NCI-H522 lung; 23.4 µM in the test on UO-31 renal; 28.2 µM in the test on NCI-H23 lung; 32.3 µM in the test with RXF 393 renal; 25.2 µM in the test on SK-MEL-28 melanoma. Further, the TGI in the test on T-47D breast was 24.1 µM; in the test with OVCAR-8 ovarian it was 31.5 µM.
As for `Clc1ccc(OCc2nnc(COc3ccc(OCc4nnc(COc5ccc(Cl)cc5Cl)o4)c(Cl)c3)o2)c(Cl)c1`, the TGI with MDA-N was over 100 µM; in the test with NCI-H522 lung, 38 µM; with UO-31 renal, 36.7 µM; in the test on NCI-H23 lung, over 100 µM; in the test on HCC-2998 colon it was 97.3 µM; in the test with RXF 393 renal, 59.6 µM. Besides, the TGI in the test on SK-MEL-28 melanoma, with T-47D breast and in the test on OVCAR-8 ovarian was over 100 µM each time.
As for `N#C/C(=C\c1cccc(Br)c1)c1nc2ccccc2c(=O)[nH]1`, the TGI was over 100 µM with MDA-N; over 100 µM in the test on NCI-H522 lung; over 100 µM in the test with UO-31 renal; over 100 µM in the test on HCC-2998 colon; 76 µM in the test with SNB-75 CNS; over 100 µM with RXF 393 renal. Also, the TGI in the test with SK-MEL-28 melanoma, in the test with T-47D breast and with OVCAR-8 ovarian was over 100 µM throughout.
Take `Oc1c(OCc2nnc(CCCCCCCCc3nnc(COc4ccc5ccccc5c4O)o3)o2)ccc2ccccc12`: the TGI with MDA-N, in the test with NCI-H522 lung, with UO-31 renal, with NCI-H23 lung, with HCC-2998 colon and with SNB-75 CNS was over 100 µM in each case. The TGI in the test with RXF 393 renal and in the test on SK-MEL-28 melanoma was over 100 µM each time.
With `C=C1CC(COc2ccc3c(C)c(C)c(=O)oc3c2C)(c2ccccc2)OC1=O` (stereo not given), the TGI turned out to be 4.4 µM with MDA-N; 4.16 µM with NCI-H522 lung; 7 µM in the test with UO-31 renal; 4.64 µM in the test with NCI-H23 lung; 7.12 µM in the test on HCC-2998 colon; 10.4 µM in the test on SNB-75 CNS. In addition, the values for the TGI in the test on SK-MEL-28 melanoma, in the test with T-47D breast and in the test with OVCAR-8 ovarian were 5.44 µM, 4.96 µM and 3.59 µM, respectively.
Regarding `O=c1oc2ccccc2c(O)c1C=NC(=S)c1ccncc1`, the TGI in the test on MDA-N, in the test on UO-31 renal, with NCI-H23 lung, in the test on HCC-2998 colon, in the test with SNB-75 CNS and in the test with SK-MEL-28 melanoma was over 100 µM in each case. The TGI with T-47D breast and in the test on OVCAR-8 ovarian was over 100 µM throughout.
On to `CN(C)CCCNc1cc(O)c2c(c1O)C(=O)c1ccccc1C2=O`, for which the TGI in the test with MDA-N turned out to be 27.4 µM; with NCI-H522 lung, 40.7 µM; in the test with UO-31 renal it was 11.9 µM; in the test with NCI-H23 lung, 27.9 µM; in the test with RXF 393 renal it was 17 µM; with SK-MEL-28 melanoma, 31 µM. The TGI was 36.5 µM with T-47D breast and 30.5 µM with OVCAR-8 ovarian.
`O=C1c2cccnc2S(=O)(=O)N1c1ccc([N+](=O)[O-])cc1`: the TGI in the test on MDA-N, in the test on NCI-H522 lung, with UO-31 renal, in the test on NCI-H23 lung, in the test with HCC-2998 colon and in the test with SNB-75 CNS was over 100 µM throughout. Also, the TGI in the test on SK-MEL-28 melanoma, in the test with T-47D breast and with OVCAR-8 ovarian was over 100 µM each time.
For `COC(=O)C1=C(C)NC(C)=C(C(=O)OC)C1c1cccc(N=O)c1`, the TGI in the test with MDA-N came to 26.2 µM; with NCI-H522 lung it was 11.8 µM; in the test with UO-31 renal, 21 µM; with NCI-H23 lung, 36.2 µM; in the test on HCC-2998 colon it was 45.9 µM; in the test with RXF 393 renal it was 26.8 µM. The values for the TGI in the test on SK-MEL-28 melanoma, in the test with T-47D breast and in the test with OVCAR-8 ovarian were 30.4 µM, 40.4 µM and 28.5 µM, respectively.
Turning to `O=C(CC(C(=O)c1cccs1)c1ccc2c(c1)OCO2)c1ccc(Br)cc1` (stereo not given), the TGI with MDA-N, with UO-31 renal, with NCI-H23 lung, in the test on HCC-2998 colon, in the test with SNB-75 CNS and in the test with SK-MEL-28 melanoma was over 100 µM throughout. The TGI in the test with T-47D breast and in the test with OVCAR-8 ovarian was over 100 µM in each case.
As for `CC(=O)C1(O)CCC2(O)C3(O)CC=C4CC(O)CCC4(C)C3CC(OC(=O)c3ccc(O)cc3)C12C` (stereo not given), the TGI in the test with MDA-N, with NCI-H522 lung, in the test on UO-31 renal, in the test with NCI-H23 lung, in the test with HCC-2998 colon and in the test on SNB-75 CNS was over 100 µM throughout. The TGI in the test on SK-MEL-28 melanoma, with T-47D breast and with OVCAR-8 ovarian was over 100 µM throughout.
With `Cc1cn(CCCCCOC(=O)NC(CCCNC(N)=O)C(=O)O)c(=O)[nH]c1=O` (stereo not given), the TGI in the test on MDA-N, in the test on UO-31 renal, in the test with NCI-H23 lung, in the test on HCC-2998 colon, in the test on SNB-75 CNS and in the test on RXF 393 renal was over 100 µM throughout. Also, the TGI with SK-MEL-28 melanoma, in the test on T-47D breast and in the test with OVCAR-8 ovarian was over 100 µM throughout.
Consider `COc1cccc(N2C(=O)CS(=O)(=O)C2c2cccc(Oc3ccccc3)c2)c1` (stereo not given), for which the TGI in the test on MDA-N was 6.45 µM; in the test on NCI-H522 lung, 37.6 µM; with UO-31 renal, over 100 µM; with NCI-H23 lung, over 100 µM; in the test with SNB-75 CNS, 84.5 µM; in the test with RXF 393 renal, 71.1 µM. Moreover, the TGI with SK-MEL-28 melanoma was over 100 µM; in the test with T-47D breast, 81.1 µM; with OVCAR-8 ovarian it was 77.2 µM.
Take `CC(O)CNC1=CC(=O)C(=O)c2ccccc21` (stereo not given): the TGI is 34.5 µM in the test with MDA-N; 41.8 µM with NCI-H522 lung; 34 µM in the test with UO-31 renal; 39.1 µM in the test with NCI-H23 lung; 26.5 µM in the test on HCC-2998 colon; 29.8 µM in the test with SNB-75 CNS. Also, the TGI in the test on RXF 393 renal is over 100 µM; in the test on SK-MEL-28 melanoma, 35 µM; in the test with T-47D breast it was 45.2 µM.
